Test results as given in ChEMBL document CHEMBL2177014 (J Med Chem, 2012).
Structures can show the parent of a compound that is named as a salt.

How the values were obtained:
[1] = target: T1, Acetylcholinesterase (Rattus norvegicus, UniProt P37136); experiment: biochemical
T1 sequence (P37136 whole entry): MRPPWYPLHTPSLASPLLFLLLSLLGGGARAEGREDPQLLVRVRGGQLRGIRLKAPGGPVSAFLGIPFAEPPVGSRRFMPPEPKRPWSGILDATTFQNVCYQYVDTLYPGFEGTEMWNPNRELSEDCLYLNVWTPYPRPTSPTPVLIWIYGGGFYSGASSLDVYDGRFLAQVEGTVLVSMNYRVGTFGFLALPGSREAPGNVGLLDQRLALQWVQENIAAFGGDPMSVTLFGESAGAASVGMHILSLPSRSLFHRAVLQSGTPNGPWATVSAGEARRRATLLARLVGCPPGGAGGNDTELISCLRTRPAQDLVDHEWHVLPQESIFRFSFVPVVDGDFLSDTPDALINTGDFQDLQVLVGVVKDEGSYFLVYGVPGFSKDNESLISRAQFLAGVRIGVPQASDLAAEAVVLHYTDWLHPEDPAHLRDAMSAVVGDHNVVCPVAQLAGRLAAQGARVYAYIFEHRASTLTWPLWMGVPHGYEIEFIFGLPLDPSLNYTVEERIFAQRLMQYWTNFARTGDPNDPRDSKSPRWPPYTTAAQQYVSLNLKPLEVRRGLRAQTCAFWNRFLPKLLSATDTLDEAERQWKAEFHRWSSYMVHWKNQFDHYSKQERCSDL
Description: Inhibition of AChE in Wistar rat brain homogenates using acetylthiocholine iodide and DTNB as substrate after 10 mins by Ellman method

[2] = target: Glutamate receptor ionotropic, NMDA 2B (Rattus norvegicus, UniProt Q00960); experiment: Displacement of [3H]Ifenprodil from NMDAR-2B in Sprague-Dawley rat frontal cortex homogenates after 2 hrs by liquid scintillation counting; assay type: tissue-based
[3] = Displacement of [3H]MK-801 from NMDAR in Sprague-Dawley rat cerebral cortex homogenates after 2 hrs by liquid scintillation counting; assay type: tissue-based
[4] = Lipophilicity, log P of the compound; assay type: physicochemical; settings: octanol/water
[5] = target: T2, Acetylcholinesterase (Rattus norvegicus) (UniProt P37136); experiment: Inhibition of AChE in Wistar rat brain homogenates using acetylthiocholine iodide and DTNB as substrate at 10 uM after 10 mins by Ellman method; assay type: tissue-based
T2 sequence (whole entry): T1 sequence (P37136 whole entry)

[6] = system: SH-SY5Y; experiment: Neuroprotective activity in human SH-SY5Y cells assessed as protection against NMDA-induced cell death after 6 hrs by MTS assay; assay type: functional, cell-based
[7] = Binding affinity to NMDAR in Sprague-Dawley rat cerebral cortex homogenates; assay type: tissue-based
[8] = species on record: Rattus norvegicus; experiment: Displacement of [3H]MK-801 from NMDAR in Sprague-Dawley rat cerebral cortex homogenates at 10 uM after 2 hrs by liquid scintillation counting; assay type: tissue-based

Chain of Glutamate receptor ionotropic, NMDA 2B (Q00960 whole entry): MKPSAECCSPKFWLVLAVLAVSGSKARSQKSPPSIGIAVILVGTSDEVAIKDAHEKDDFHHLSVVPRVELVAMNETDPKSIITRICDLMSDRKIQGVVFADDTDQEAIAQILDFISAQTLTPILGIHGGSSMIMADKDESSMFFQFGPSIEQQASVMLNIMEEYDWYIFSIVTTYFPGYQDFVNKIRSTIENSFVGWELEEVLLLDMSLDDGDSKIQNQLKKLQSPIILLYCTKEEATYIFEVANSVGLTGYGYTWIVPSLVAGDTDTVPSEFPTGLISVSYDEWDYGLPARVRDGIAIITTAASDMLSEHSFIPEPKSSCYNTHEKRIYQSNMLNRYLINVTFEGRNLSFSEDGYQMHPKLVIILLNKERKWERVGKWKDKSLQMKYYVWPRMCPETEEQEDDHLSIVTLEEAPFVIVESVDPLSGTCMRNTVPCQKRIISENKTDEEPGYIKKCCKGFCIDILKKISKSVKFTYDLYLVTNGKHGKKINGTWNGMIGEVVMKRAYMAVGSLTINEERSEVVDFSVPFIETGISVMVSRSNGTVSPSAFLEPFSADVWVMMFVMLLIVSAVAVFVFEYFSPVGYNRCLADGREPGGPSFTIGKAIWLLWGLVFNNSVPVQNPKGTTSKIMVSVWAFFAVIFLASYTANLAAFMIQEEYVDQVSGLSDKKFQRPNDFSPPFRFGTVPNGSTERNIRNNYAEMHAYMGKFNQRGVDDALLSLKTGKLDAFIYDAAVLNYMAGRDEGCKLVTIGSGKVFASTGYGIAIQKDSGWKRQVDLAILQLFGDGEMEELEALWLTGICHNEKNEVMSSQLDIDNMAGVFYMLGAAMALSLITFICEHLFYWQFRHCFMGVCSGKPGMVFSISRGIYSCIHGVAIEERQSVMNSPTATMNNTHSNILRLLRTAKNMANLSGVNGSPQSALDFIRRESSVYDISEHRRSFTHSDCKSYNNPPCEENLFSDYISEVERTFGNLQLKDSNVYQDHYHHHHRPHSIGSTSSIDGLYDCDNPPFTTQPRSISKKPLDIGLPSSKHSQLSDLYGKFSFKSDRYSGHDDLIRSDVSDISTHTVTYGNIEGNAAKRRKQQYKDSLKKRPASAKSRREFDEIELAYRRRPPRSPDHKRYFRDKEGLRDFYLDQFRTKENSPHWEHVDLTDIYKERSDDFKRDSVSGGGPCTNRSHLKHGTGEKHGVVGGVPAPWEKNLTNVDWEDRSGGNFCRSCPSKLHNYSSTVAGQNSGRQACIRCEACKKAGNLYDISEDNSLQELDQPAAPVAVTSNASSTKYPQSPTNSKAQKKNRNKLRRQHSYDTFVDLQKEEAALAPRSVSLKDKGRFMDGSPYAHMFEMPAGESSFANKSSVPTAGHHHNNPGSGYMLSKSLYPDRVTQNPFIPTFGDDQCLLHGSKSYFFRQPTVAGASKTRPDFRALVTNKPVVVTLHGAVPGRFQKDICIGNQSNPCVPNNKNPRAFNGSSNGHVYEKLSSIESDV

SMILES | IC50 [1] [nM] | Ki [2] [nM] | Ki [3] [nM] | logP [4] | inhibition [5] [%] | IC50 [6] [nM] | Kd [7] [nM] | inhibition [8] [%]
COc1ccc2c3c1O[C@H]1C[C@@H](O)C=C[C@@]31CCN(CCCCCCCCNC13CC4CC(C)(CC(C)(C4)C1)C3)C2 | 5.36 | 2900 | 4990 | 5.9 |  |  |  | 
COc1ccc2c3c1O[C@H]1C[C@@H](O)C=C[C@@]31CCN(CCCCCCCCN(C)C13CC4CC(C)(CC(C)(C4)C1)C3)C2 | 0.52 | > 100000 | > 10000 |  |  |  |  | 
COc1ccc2c3c1O[C@H]1C[C@@H](O)C=C[C@@]31CCN(CCCC(=O)NC13CC4CC(C)(CC(C)(C4)C1)C3)C2 | 55.7 | > 100000 | > 10000 |  |  |  |  | 
COc1ccc2c3c1O[C@H]1C[C@@H](O)C=C[C@@]31CCN(CCCCCCCCCNC13CC4CC(C)(CC(C)(C4)C1)C3)C2 | 2.32 | > 100000 | 4630 | 6.38 |  |  |  | 
COc1ccc2c3c1O[C@H]1C[C@@H](O)C=C[C@@]31CCN(CCCCCCCN(C)C13CC4CC(C)(CC(C)(C4)C1)C3)C2 | 1.33 | > 100000 | > 10000 |  |  |  |  | 
COc1ccc2c3c1O[C@H]1C[C@@H](O)C=C[C@@]31CCN(CCCCC(=O)NC13CC4CC(C)(CC(C)(C4)C1)C3)C2 | 369 | > 100000 | > 10000 |  |  |  |  | 
CC12CC3CC(C)(C1)CC(N)(C3)C2 [MEMANTINE] |  |  | 1160 |  | 8.5 | 718 |  | 
C[C@]12N[C@H](Cc3ccccc31)c1ccccc12 [DIZOCILPINE MALEATE] |  |  |  |  |  | 7.91 | 4 | 
COc1ccc2c3c1O[C@H]1C[C@@H](O)C=C[C@@]31CCN(CCCNCCCNC13CC4CC(C)(CC(C)(C4)C1)C3)C2 | 168 | 3320 | 5410 |  |  |  |  | 
COc1ccc2c3c1O[C@H]1C[C@@H](O)C=C[C@@]31CCN(CCOCCNC13CC4CC(C)(CC(C)(C4)C1)C3)C2 | 3920 | > 100000 | > 10000 |  |  |  |  | 
COc1ccc2c3c1O[C@H]1C[C@@H](O)C=C[C@@]31CCN(CCOCCOCCNC13CC4CC(C)(CC(C)(C4)C1)C3)C2 | 80.9 | > 100000 | > 10000 |  |  | > 10000 |  | 
COc1ccc2c3c1O[C@H]1C[C@@H](O)C=C[C@@]31CCN(CCCCCCN(C)C13CC4CC(C)(CC(C)(C4)C1)C3)C2 | 1.03 | 5250 | > 10000 |  |  |  |  | 
COc1ccc2c3c1O[C@H]1C[C@@H](O)C=C[C@@]31CCN(CCSCCNC13CC4CC(C)(CC(C)(C4)C1)C3)C2 | 131 | > 100000 | > 10000 |  |  |  |  | 
COc1ccc2c3c1O[C@H]1C[C@@H](O)C=C[C@@]31CCN(C)C2 [GALANTAMINE] |  | > 100000 | > 10000 |  |  | 747 |  | 
COc1ccc2c3c1O[C@H]1C[C@@H](O)C=C[C@@]31CCN(CCCCCCCNC13CC4CC(C)(CC(C)(C4)C1)C3)C2 | 1.79 | 11000 | 10000 | 5.42 |  | 0.21 |  | 
COc1ccc2c3c1O[C@H]1C[C@@H](O)C=C[C@@]31CCN(CCCCNC13CC4CC(C)(CC(C)(C4)C1)C3)C2 | 696 | > 100000 | 2320 | 3.98 |  |  |  | 
COc1ccc2c3c1O[C@H]1C[C@@H](O)C=C[C@@]31CCN(CCCCCC(=O)NC13CC4CC(C)(CC(C)(C4)C1)C3)C2 | 11.3 | 9760 |  |  |  | 0.37 |  | 33.9
COc1ccc2c3c1O[C@H]1C[C@@H](O)C=C[C@@]31CCN(CCCCCNC13CC4CC(C)(CC(C)(C4)C1)C3)C2 | 4.31 | 40900 | > 10000 | 4.46 |  |  |  | 
COc1ccc2c3c1O[C@H]1C[C@@H](O)C=C[C@@]31CCN(CCCCCCNC13CC4CC(C)(CC(C)(C4)C1)C3)C2 [MEMAGAL] | 1.16 | 4600 | 4600 | 4.94 |  | 0.28 |  | 
CC(C(O)c1ccc(O)cc1)N1CCC(Cc2ccccc2)CC1 (configuration not stated) [IFENPRODIL] |  |  | 3080 |  |  |  |  | 
